Test results: article PMC9174199, “Structural basis for MTA1c-mediated DNA N6-adenine methylation” (Nature Communications, 2022)
Each block holds one molecule with its values, some of them ahead of it.

Columns and labels:
[1] = molecular target: Tetrahymena thermophila MTA1 (TthMTA1), untagged (Tetrahymena thermophila); assay: SEC; Superdex 200 Increase 10/300; purified proteins mixed at equimolar ratio (1:1, 1:1:1 or 1:1:1:1), 60 min on ice; 20 mM Tris pH 7.5, 300 mM NaCl, 2 mM DTT; peak fractions on SDS-PAGE
[2] = molecular target: T1, TthMTA1 (residues 126–372)-Tthp1-Tthp2 crystal complex (Tetrahymena thermophila, UniProt Q22GC0); assay: X-ray crystal structure, soaking; type: binding; details: site in MTA1 MTase domain
T1 construct: gene TTHERM_00704040; N-terminally truncated MTA1 with p1 and p2; p1 degraded in the crystal, only its HTH domain seen
T1 sequence (Q22GC0 182-428): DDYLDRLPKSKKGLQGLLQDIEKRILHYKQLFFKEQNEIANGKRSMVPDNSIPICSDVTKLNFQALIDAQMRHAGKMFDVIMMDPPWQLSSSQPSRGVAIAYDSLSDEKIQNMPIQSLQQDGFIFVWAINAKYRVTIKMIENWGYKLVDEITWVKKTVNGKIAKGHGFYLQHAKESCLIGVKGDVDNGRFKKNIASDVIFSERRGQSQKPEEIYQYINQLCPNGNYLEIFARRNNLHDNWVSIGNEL

[3] = molecular target: T2, TthMTA1 (residues 126-372)-Tthp2 crystal complex (Tetrahymena thermophila, UniProt Q22GC0); assay: X-ray crystal structure, soaking; type: binding; details: site in MTA1 MTase domain
T2 construct: gene TTHERM_00704040; N-terminally truncated MTA1 with p2
T2 sequence (Q22GC0 182-428): T1 sequence (Q22GC0 182-428)

TthMTA1-Ptep2 (ITC) = molecular target: T3, TthMTA1-Ptep2 (ITC) (Tetrahymena thermophila, UniProt Q22GC0); assay: isothermal titration calorimetry; details: 25 °C, pH 7.5, 300 mM NaCl, no DNA
T3 construct: gene TTHERM_00704040

[4] = molecular target: T4, TthMTA1c (MTA1-MTA9-p1-p2 quaternary complex) (Tetrahymena thermophila, UniProt Q22GC0); assay: isothermal titration calorimetry; details: 25 °C, pH 7.5, 300 mM NaCl, no DNA
T4 construct: gene TTHERM_00704040

[5] = molecular target: T5, TthMTA1-Tthp2 binary complex (ITC) (Tetrahymena thermophila, UniProt Q22GC0); assay: isothermal titration calorimetry; details: 25 °C, pH 7.5, 300 mM NaCl, no DNA
T5 construct: gene TTHERM_00704040

[6] = molecular target: T6, TthMTA1-TthMTA9-Tthp2 ternary complex (ITC) (Tetrahymena thermophila, UniProt Q22GC0); assay: isothermal titration calorimetry; details: 25 °C, pH 7.5, 300 mM NaCl, no DNA
T6 construct: gene TTHERM_00704040

[7] = molecular target: T7, TthMTA1-Tthp1-Tthp2 ternary complex (ITC) (Tetrahymena thermophila, UniProt Q22GC0); assay: isothermal titration calorimetry; details: 25 °C, pH 7.5, 300 mM NaCl, no DNA
T7 construct: gene TTHERM_00704040

His6GST-Tthp2 = molecular target: T8, His6GST-Tthp2; assay: GST pull-down; details: chain shown with the change;; parent: 100
T8 chain: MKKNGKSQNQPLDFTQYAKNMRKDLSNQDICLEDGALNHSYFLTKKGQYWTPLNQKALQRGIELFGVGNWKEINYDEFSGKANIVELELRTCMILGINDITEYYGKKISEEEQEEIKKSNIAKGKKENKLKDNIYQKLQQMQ

[8] = molecular target: T9, GST-MTA1 (residues 171-372); assay: GST pull-down; details: chain shown with the change;; parent: 100
T9 chain: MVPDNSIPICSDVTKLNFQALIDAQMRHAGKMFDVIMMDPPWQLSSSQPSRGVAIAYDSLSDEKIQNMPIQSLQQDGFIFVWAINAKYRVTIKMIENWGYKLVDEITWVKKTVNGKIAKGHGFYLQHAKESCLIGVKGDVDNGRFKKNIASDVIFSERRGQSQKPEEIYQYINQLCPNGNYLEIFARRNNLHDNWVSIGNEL

T3 sequence (Q22GC0 57-428): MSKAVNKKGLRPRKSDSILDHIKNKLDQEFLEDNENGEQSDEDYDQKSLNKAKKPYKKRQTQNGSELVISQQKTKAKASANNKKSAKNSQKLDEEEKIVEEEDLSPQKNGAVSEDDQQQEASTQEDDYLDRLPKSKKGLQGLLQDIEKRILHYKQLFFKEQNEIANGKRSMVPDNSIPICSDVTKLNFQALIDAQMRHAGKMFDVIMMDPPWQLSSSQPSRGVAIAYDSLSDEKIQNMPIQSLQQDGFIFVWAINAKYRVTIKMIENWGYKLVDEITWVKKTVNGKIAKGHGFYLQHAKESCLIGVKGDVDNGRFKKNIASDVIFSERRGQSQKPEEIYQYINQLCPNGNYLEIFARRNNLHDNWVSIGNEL
T4 sequence (Q22GC0 entry or part of it, one chain of several): as the sequence (Q22GC0 57-428) above
T5 sequence (Q22GC0 entry or part of it, one chain of several): as the sequence (Q22GC0 57-428) above
T6 sequence (Q22GC0 entry or part of it, one chain of several): as the sequence (Q22GC0 57-428) above
T7 sequence (Q22GC0 entry or part of it, one chain of several): as the sequence (Q22GC0 57-428) above

Molecule: Tetrahymena thermophila MTA9 (TthMTA9), untagged (natural protein)
stoichiometry N [1]: 1

Molecule: Nc1ncnc2c1ncn2[C@@H]1O[C@H](CSCC[C@H](N)C(=O)O)[C@@H](O)[C@H]1O [SAH]
X-ray crystal structure, soaking ([2]; 3.0 Å, 1 mM SAH soak): the SAH product-bound MTA1-p1-p2 complex by soaking approach | X-ray crystal structure, soaking ([3]; 1 mM SAH soak): further confirmed by our SAM- and SAH-bound MTA1-p2 structures

The next lines start with results.

X-ray crystal structure, soaking ([2]; 3.4 Å, 1 mM SAM soak): SAM donor-bound MTA1-p1-p2 complex | Kd (TthMTA1-Ptep2 (ITC)): 67.8 ± 5.45 µM | Kd [4]: 2.4 ± 0.26 µM | Kd [5]: 44.6 ± 3.4 µM | Kd [6]: 3.64 ± 0.56 µM | Kd [7]: 14.8 ± 2.71 µM
Molecule: C[S+](CC[C@H](N)C(=O)O)C[C@H]1O[C@@H](n2cnc3c(N)ncnc32)[C@H](O)[C@@H]1O (stereo partly drawn) [SAM]
X-ray crystal structure, soaking ([3]; 1 mM SAM soak): further confirmed by our SAM- and SAH-bound MTA1-p2 structures

percent of parent (His6GST-Tthp2): 4%
B1: Tetrahymena thermophila MTA1 (TthMTA1), untagged R358A (protein)
chain: MSKAVNKKGLRPRKSDSILDHIKNKLDQEFLEDNENGEQSDEDYDQKSLNKAKKPYKKRQTQNGSELVISQQKTKAKASANNKKSAKNSQKLDEEEKIVEEEDLSPQKNGAVSEDDQQQEASTQEDDYLDRLPKSKKGLQGLLQDIEKRILHYKQLFFKEQNEIANGKRSMVPDNSIPICSDVTKLNFQALIDAQMRHAGKMFDVIMMDPPWQLSSSQPSRGVAIAYDSLSDEKIQNMPIQSLQQDGFIFVWAINAKYRVTIKMIENWGYKLVDEITWVKKTVNGKIAKGHGFYLQHAKESCLIGVKGDVDNGRFKKNIASDVIFSERRGQSQKPEEIYQYINQLCPNGNYLEIFARANNLHDNWVSIGNEL

percent of parent [8]: 99%
B2: Paramecium tetraurelia MTA9 (PteMTA9), untagged K218A (protein)
chain: MGKNQRESLRMRLRYNEPGSENKRINYFKLNQGYDITEDDSEYMDEQDSYKAFKKIRKYKTKSKEDKVTCDNLEVLLQWKGSINCQSYETDQKKIVVLKKILGTDLSQYAKGVQGIFIDNLFKKDLKNLDISKKLISNGILFIWSDKSLINEILETMENKGFTYIENLVVVQLSLEQALEELNKHMKIEQTEDAVLDNLDFLQQKVQVKDLILHRPSAVLNQSKQVLIMFRKFDEQKSQLELRHQRTPDVLFDIVNNGKSCLKTKEYIYQTIETLLPKSQLMEIFAQKDQPRKGWISVCENK
